From ChEMBL document CHEMBL1134310, “3-(Arylacetylamino)-N-methylbenzamides: a novel class of selective anti-Helicobacter pylori agents” (2001)
In brackets after ≈: the same amount, converted by molar mass.

How the values were obtained:
Format in all cases: functional
Helicobacter pylori [1] = test: Minimum inhibitory concentration against Helicobacter pylori.
Helicobacter pylori [2] = test: Minimum inhibitory concentration against Helicobacter pylori under acidic conditions at pH 6.0
Helicobacter pylori [3] = test: Minimum inhibitory concentration against Helicobacter pylori under acidic conditions at pH 5.0
Helicobacter pylori [4] = test: Minimum inhibitory concentration against Helicobacter pylori under acidic conditions at pH 7.0

Compound	MIC (Helicobacter pylori [1]) [µg/mL]	other results
CNC(=O)c1cccc(NC(=O)COc2ccccc2)c1	3.12 (≈ 11 µM)	
CNC(=O)c1cccc(NC(=O)Cc2ccc(Cl)cc2)c1	0.78 (≈ 2.58 µM)	
CNC(=O)c1cccc(NC(=O)Cc2cccc(OCc3ccccc3)c2)c1	0.78 (≈ 2.08 µM)	
CC1(C)S[C@@H]2[C@H](NC(=O)[C@H](N)c3ccc(O)cc3)C(=O)N2[C@H]1C(=O)O [AMOXICILLIN]		MIC (Helicobacter pylori [2]): 0.125 µg/mL (≈ 0.342 µM); MIC (Helicobacter pylori [3]): 0.5 µg/mL (≈ 1.37 µM); MIC (Helicobacter pylori [4]): 0.031 µg/mL (≈ 0.0848 µM)
CNC(=O)c1cccc(NC(=O)Cc2ccc3c(c2)OCO3)c1	0.78 (≈ 2.5 µM)	
CNC(=O)c1cccc(NC(=O)COc2ccc3ccccc3c2)c1	0.39 (≈ 1.17 µM)	
CNC(=O)c1cccc(NC(=O)Cc2cccc3ccccc23)c1	0.1 (≈ 0.314 µM)	MIC (Helicobacter pylori [2]): 0.125 µg/mL (≈ 0.393 µM); MIC (Helicobacter pylori [3]): 0.125 µg/mL (≈ 0.393 µM); MIC (Helicobacter pylori [4]): 0.125 µg/mL (≈ 0.393 µM)
CNC(=O)c1cccc(NC(=O)CCc2ccccc2OC)c1	0.78 (≈ 2.5 µM)	
CNC(=O)c1cccc(NC(=O)CC2CCCCC2)c1	12.5 (≈ 45.6 µM)	
CNC(=O)c1cccc(NC(=O)OCc2ccc(C)cc2)c1	0.1 (≈ 0.335 µM)	
CNC(=O)c1cccc(NC(=O)Cc2ccccc2Cl)c1	3.12 (≈ 10.3 µM)	
O=C(Cc1cccc(Br)c1)Nc1cccc(C(=O)NO)c1	12.5 (≈ 35.8 µM)	
CCNC(=O)c1cccc(NC(=O)Cc2cccc(Br)c2)c1	3.12 (≈ 8.64 µM)	
CNC(=O)c1cccc(NC(=O)COc2cccc3ccccc23)c1	0.1 (≈ 0.299 µM)	
CNC(=O)c1cccc(NC(=O)Cc2cccc(F)c2)c1	3.12 (≈ 10.9 µM)	
CONC(=O)c1cccc(NC(=O)Cc2cccc(Br)c2)c1	12.5 (≈ 34.4 µM)	
CNC(=O)c1cccc(NC(=O)Cc2ccc(Br)cc2)c1	0.78 (≈ 2.25 µM)	
CN(C)C(=O)c1cccc(NC(=O)Cc2cccc(Br)c2)c1	25 (≈ 69.2 µM)	
CC[C@H]1OC(=O)[C@H](C)[C@@H](O[C@H]2C[C@@](C)(OC)[C@@H](O)[C@H](C)O2)[C@H](C)[C@@H](O[C@@H]2O[C@H](C)C[C@H](N(C)C)[C@H]2O)[C@](C)(OC)C[C@@H](C)C(=O)[C@H](C)[C@@H](O)[C@]1(C)O [CLARITHROMYCIN]	0.05 (≈ 0.0668 µM)	MIC (Helicobacter pylori [2]): 0.5 µg/mL (≈ 0.668 µM); MIC (Helicobacter pylori [3]): 2 µg/mL (≈ 2.67 µM); MIC (Helicobacter pylori [4]): 0.063 µg/mL (≈ 0.0842 µM)

Compound	MIC (Helicobacter pylori [1]) [µg/mL]	other results
CNC(=O)c1cccc(NC(=O)Cc2cccc([N+](=O)[O-])c2)c1	3.12 (≈ 9.96 µM)	
CNC(=O)c1cccc(NC(=O)Cc2ccccc2)c1	1.56 (≈ 5.81 µM)	
CNC(=O)c1cccc(NC(=O)Cc2cccc(Cl)c2)c1	0.39 (≈ 1.29 µM)	
CNC(=O)c1cccc(NC(=O)Cc2ccc3ccccc3c2)c1	0.05 (≈ 0.157 µM)	MIC (Helicobacter pylori [2]): 0.063 µg/mL (≈ 0.198 µM); MIC (Helicobacter pylori [3]): 0.063 µg/mL (≈ 0.198 µM); MIC (Helicobacter pylori [4]): 0.063 µg/mL (≈ 0.198 µM)
CNC(=O)c1cccc(NC(=O)Cc2cccc(OC)c2)c1	0.78 (≈ 2.61 µM)	
CNC(=O)c1cccc(NC(=O)OCc2ccc3ccccc3c2)c1	0.1 (≈ 0.299 µM)	
CNC(=O)c1cccc(NC(=O)COc2cccc(Cl)c2Cl)c1	0.39 (≈ 1.1 µM)	
CNC(=O)c1cccc(NC(=O)CCc2ccccc2)c1	12.5 (≈ 44.3 µM)	
CNC(=O)c1cccc(NC(=O)Cc2csc3ccccc23)c1	0.1 (≈ 0.308 µM)	MIC (Helicobacter pylori [2]): 0.25 µg/mL (≈ 0.771 µM); MIC (Helicobacter pylori [3]): 0.25 µg/mL (≈ 0.771 µM); MIC (Helicobacter pylori [4]): 0.25 µg/mL (≈ 0.771 µM)
CNC(=O)c1cccc(NC(=O)OCc2cccc3ccccc23)c1	0.05 (≈ 0.15 µM)	
CNC(=O)c1cccc(NC(=O)Cc2cccc(C)c2)c1	0.39 (≈ 1.38 µM)	
CNC(=O)c1cccc(NC(=O)OCc2ccc(Cl)cc2)c1	0.2 (≈ 0.627 µM)	
CNC(=O)c1cccc(NC(=O)Cc2cccc(Br)c2)c1	0.39 (≈ 1.12 µM)	
CNC(=O)c1cccc(NC(=O)OCc2c(Cl)cccc2Cl)c1	0.2 (≈ 0.566 µM)	
NC(=O)c1cccc(NC(=O)Cc2cccc(Br)c2)c1	100 (≈ 300 µM)	
CCOC(=O)c1cccc(NC(=O)Cc2cccc(Br)c2)c1	> 100	
O=C(Cc1cccc(Br)c1)Nc1cccc(C(=O)O)c1	> 100	
CNC(=O)c1cccc(NC(=O)Cc2cccc(O)c2)c1	6.25 (≈ 22 µM)	
CNC(=O)c1cccc(NC(=O)Cc2c[nH]c3ccccc23)c1	0.78 (≈ 2.54 µM)	
